The values that follow come from paper PMC10300102, “In vivo inhibition of nuclear ACE2 translocation protects against SARS-CoV-2 replication and lung damage through epigenetic imprinting” (Nature Communications, 2023).

The test system of data set [1] is SARS-CoV-2 (QLD02) in Caco2 cells. The following applies: cited from earlier work.
Another data set deals with CD14+ monocytes. In kind it is cell-based, human.
Data set [2] deals with SARS-CoV-2-induced lung pathology. On the set-up: species or system golden Syrian hamsters. The settings on record: hamster, in vivo.
The conditions of data set [3]: hamsters, escalating daily i.p. doses up to 100 mg/kg.
Data set [4] deals with T1, ACE2-IMPα interactions in H1299 cells (Homo sapiens, UniProt P52294).
T1 construct: endogenous in cells; host or cells: NCI-H1299
T1 sequence (P52294 whole entry): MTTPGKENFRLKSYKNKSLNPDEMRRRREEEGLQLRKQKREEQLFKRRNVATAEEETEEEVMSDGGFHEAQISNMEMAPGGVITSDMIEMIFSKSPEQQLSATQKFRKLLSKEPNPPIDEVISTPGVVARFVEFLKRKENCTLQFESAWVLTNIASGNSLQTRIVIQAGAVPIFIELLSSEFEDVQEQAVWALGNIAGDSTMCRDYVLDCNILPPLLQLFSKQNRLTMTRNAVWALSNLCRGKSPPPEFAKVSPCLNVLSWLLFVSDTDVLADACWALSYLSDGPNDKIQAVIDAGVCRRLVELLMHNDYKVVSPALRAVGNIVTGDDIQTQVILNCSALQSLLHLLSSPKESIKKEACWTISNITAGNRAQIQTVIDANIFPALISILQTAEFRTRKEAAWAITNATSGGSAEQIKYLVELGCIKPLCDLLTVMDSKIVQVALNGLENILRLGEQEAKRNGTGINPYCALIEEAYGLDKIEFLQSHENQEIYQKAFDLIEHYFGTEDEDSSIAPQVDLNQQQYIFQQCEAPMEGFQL
The data set can be described thus: Duolink proximity ligation assay. The settings on record: 0.0015, 0.0977 and 6.25 µM. In kind it is cell-based. The method, then: The Duolink proximity ligation assay was used with PLA probe anti-mouse PLUS (DUO92001), PLA probe anti-rabbit MINUS (DUO92005), and the Duolink In Situ Detection Reagent Red kit (DUO92008) (Sigma-Aldrich). Cells were fixed, permeabilized, and incubated with primary ACE2 antibodies targeting the NLS region and IMPα1 (staining conditions are shown in Supplementary Table 4). Cells were processed according to the manufacturer’s instructions. Finally, coverslips were mounted onto slides and examined as above. Image segmentation and analysis were carried out using QuPath open software (version 0.4.3) for bioimage analysis[64] with a custom script. An analysis workflow was developed with the following steps: (i) threshold-based cell detection using DAPI staining to create a mask for detected nuclei along with a 5 µm cell expansion setting to denote the cell cytoplasm boundary; and (ii) use of the QuPath subcellular detection module to detect the Duolink-positive spots in the Alexa Fluor 555 channel in each cell. The two functions were wrapped in a script to allow for batch analysis of images and data export. Total dots were counted per cell and then averaged for each cell and experimental group; approximately 100 cells were counted per group.

The next data set deals with H3K27ac in CD14+ PBMCs. Put plainly: H3K27ac nuclear fluorescence intensity and clock scan in CD14+ PBMCs. The settings on record: CD14+ PBMCs of PB and PI patients. In kind it is cell-based, human.
The subject of data set [5] is NFACT1, C-Rel, ACE2, pPKC-zeta, Nurr1/Nur77, HDAC1 or NFKB p50. In kind it is cell-based. The following applies: Fig. 1d.
The next data set concerns the target T2, ACE2 (Homo sapiens, UniProt Q9BYF1).
T2 construct: endogenous in cells; host or cells: Caco2
Put plainly: ACE2 activity assay in Caco2 cell lysates. In kind it is biochemical. The following applies: Caco2 cells treated 50 µM 24 h, fluorometric kit, n = 3 technical replicates. As to the method:
Caco2 cells were seeded in T75 flasks using complete DMEM medium as above. Cells were treated with NACEi2 (50 µM) for 24 h. 1 × 10^6 cells were harvested, and the ACE2 activity assay was performed using the ACE2 Activity Assay Kit (Fluorometric) (ab273297, Abcam, Cambridge, UK) following the manufacturer’s instructions. ACE2 positive control with diluted ACE2 inhibitor was used as a negative control, and cell lysate with lysis buffer only was used as the background control. Fluorescence (Ex/Em = 320/420 nm) was measured in kinetic mode for 30 min (5 min intervals) at room temperature with a Biotek Synergy H4 Multimode Scanner.

In data set [6] the test system is perforin-positive and CD3+ cells. In kind it is in vivo, golden Syrian hamsters. The settings on record: hamster lungs 2 dpi; for %CD3+ / %Perforin+: individual animals, n=5.

“And” between values parts separate entries of the source, which are not always exact repeats. Equal values may be shown once. Read-outs that look alike come from different tables or passages of the source. Where a SMILES comes first, the peptide text is derived from it. The star is where a group is joined. Myristoyl = CCCCCCCCCCCCCC(=O)*

T2 sequence (Q9BYF1 18-805): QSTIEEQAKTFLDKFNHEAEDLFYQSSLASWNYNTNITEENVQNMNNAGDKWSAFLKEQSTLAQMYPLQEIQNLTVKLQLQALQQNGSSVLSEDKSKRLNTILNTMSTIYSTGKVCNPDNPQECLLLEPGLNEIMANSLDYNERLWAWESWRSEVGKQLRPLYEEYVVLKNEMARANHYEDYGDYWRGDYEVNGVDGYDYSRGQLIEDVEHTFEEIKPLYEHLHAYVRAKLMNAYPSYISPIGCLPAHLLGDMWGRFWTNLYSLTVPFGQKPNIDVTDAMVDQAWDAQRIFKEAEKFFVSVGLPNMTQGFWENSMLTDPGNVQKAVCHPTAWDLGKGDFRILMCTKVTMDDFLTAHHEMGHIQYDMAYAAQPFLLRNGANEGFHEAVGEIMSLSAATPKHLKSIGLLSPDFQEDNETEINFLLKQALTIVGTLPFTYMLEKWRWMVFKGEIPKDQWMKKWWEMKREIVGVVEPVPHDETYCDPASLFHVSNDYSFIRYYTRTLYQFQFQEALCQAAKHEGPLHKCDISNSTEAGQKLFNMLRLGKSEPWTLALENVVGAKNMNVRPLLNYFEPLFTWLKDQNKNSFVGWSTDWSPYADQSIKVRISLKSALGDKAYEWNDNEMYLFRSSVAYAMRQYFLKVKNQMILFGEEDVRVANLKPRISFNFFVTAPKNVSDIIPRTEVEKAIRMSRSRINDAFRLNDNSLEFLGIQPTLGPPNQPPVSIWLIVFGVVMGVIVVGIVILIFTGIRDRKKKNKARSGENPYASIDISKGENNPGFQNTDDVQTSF

With `CCCCCCCCCCCCCC(=O)N[C@H](C(=O)NCC(=O)N[C@H](C(=O)N[C@@H](CCCNC(=N)N)C(=O)N[C@@H](CC(=O)O)C(=O)N[C@@H](CCCNC(=N)N)C(=O)N[C@@H](CCCCN)C(=O)N[C@@H](CCCCN)C(=O)N[C@@H](CCCCN)C(=O)N[C@@H](CC(N)=O)C(=O)N[C@@H](CCCCN)C(=O)N[C@@H](C)C(=O)N[C@@H](CCCNC(=N)N)C(=O)N[C@@H](CO)C(=O)O)[C@@H](C)CC)[C@@H](C)O` [NACE2i] (Myristoyl-TGIRDRKKKNKARS-OH), the “SARS-CoV-2 replication in Caco2 cells” value in data set [1] is “significantly inhibit”. Moreover, in the data set with CD14+ monocytes, the “ACE2me expression in CD14+ monocytes” value is “induced”; the “CD14+ACE2 NFI” value was 581.219 and 687.373 and 742.928 and 1006.4 and 850.738 and 975.203 and 677.429 and 828.535; the “IL-6 expression in CD14+ monocytes” value is “significantly decreased”; the “nuclear ACE2 expression in CD14+ monocytes” value is recorded as “significantly decreased”. In addition, the “nuclear ACE2 expression in infected CD14+ monocytes” value with CD14+ monocytes is reported as “reduced”. In data set [2], the lung histopathological changes result was “minimal alveolar, bronchiolar, or vascular changes” and the “mean cumulative histopathological scores versus vehicle” value is on record as “substantially lower”. In data set [2] (ip), this compound registered a Bronchitis/bronchiolitis of 0, an Interstital inflammation of 0 and a Vasculitis of 0. Also, in [3], the body temperature entry is “minimal changes in body temperature”, the body weight entry is on record as “without a decrease in body weight” and the discomfort entry was “no observable discomfort”. In data set [4], the “ACE2-IMPα interactions (Duolink)” value is listed as “significantly inhibited ACE2-IMPα interactions in a dose-dependent manner”. Besides, in the data set with H3K27ac in CD14+ PBMCs, the H3K7ac mark entry was “successfully induced”. Besides, the “selectivity for nuclear ACE2 versus other nuclear proteins of the importin pathway (NFI)” value in data set [5] is “specifically targets nuclear ACE2 and not other nuclear proteins”. The ACE2 enzymatic activity result on ACE2 is reported as “no impact”. In data set [6] (i.p. NACE2i), the “%CD3+” value is 7.228% and 6.247% and 7.351% and 8.086%; the “%Perforin+” value was 14.1151% and 9.254% and 20.5795% and 12.5121%. In data set [6] (i.v. NACE2i), the “%CD3+” value is 6.775% and 4.046% and 7.435% and 7.728% and 7.891%; the “%Perforin+” value is 8.914% and 7.676% and 12.1345% and 7.891% and 7.955%. Moreover, in [6] (i.v. or i.p.), the “number of CD3+ cells” value is reported as “significantly increased” and the “proportion of perforin-positive cells” value is recorded as “significantly increased”.
